The values below come from paper PMC3207901, “Nodulin 41, a novel late nodulin of common bean with peptidase activity” (BMC Plant Biology, 2011).

Where a SMILES comes first, the peptide text is derived from it. [ ]: non-standard residue; d: D form. The star is where a group is joined. Sta = CC(C)C[C@H](N)[C@@H](O)CC(=O)O; Isovaleryl = CC(C)CC(=O)*

The target of the assay is T1, PvNod41 (nodulin 41) (Phaseolus vulgaris, UniProt G1FTR5).
T1 construct: gene Nod41; native mature enzyme purified from 21 dpi root nodules; 437-residue precursor, 22-residue putative signal peptide and 50-residue prosegment removed; single chain, 41 kDa on SDS-PAGE
T1 sequence (G1FTR5 73-437): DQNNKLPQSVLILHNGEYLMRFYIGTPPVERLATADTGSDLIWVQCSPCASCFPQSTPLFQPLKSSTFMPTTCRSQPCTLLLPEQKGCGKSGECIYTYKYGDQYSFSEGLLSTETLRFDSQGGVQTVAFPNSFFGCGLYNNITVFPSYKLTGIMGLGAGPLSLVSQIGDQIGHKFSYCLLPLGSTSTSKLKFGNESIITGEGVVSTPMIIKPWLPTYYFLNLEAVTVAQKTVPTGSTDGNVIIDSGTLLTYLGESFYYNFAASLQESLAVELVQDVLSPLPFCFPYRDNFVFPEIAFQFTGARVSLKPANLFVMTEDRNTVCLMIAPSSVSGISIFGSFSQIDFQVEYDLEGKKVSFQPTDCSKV
The assay is described as follows: casein degradation, SDS-PAGE densitometry. The class given is biochemical. Conditions: 2 µM, casein substrate, 50 mM sodium citrate, pH 4.5, 37°C, 15 min preincubation. The source says:
casein degradation, SDS-PAGE densitometry on PvNod41 (nodulin 41)

On to `CC(C)CC(=O)N[C@H](C(=O)N[C@H](C(=O)N[C@@H](CC(C)C)[C@@H](O)CC(=O)N[C@@H](C)C(=O)N[C@@H](CC(C)C)[C@@H](O)CC(=O)O)C(C)C)C(C)C` [Pepstatin A] (Isovaleryl-VV[Sta]A[Sta]-OH), for which the “% of residual activity (n = 3)” value is recorded as 55 (± 5) %.
